Laboratory results as given in patent publication US7875587B2, “Peptide analogues of GIP for treatment of diabetes, insulin resistance and obesity” (UUTECH Limited, priority 2004, dated 2011).

Experiments:
DPP IV = molecular target: T1, DPP IV (Sus scrofa, UniProt P22411); test: DPP IV degradation studies of fatty acid derivatised GIP analogues; assay type: in vitro ADME, porcine; conditions: pig, isolated enzyme dpp iv, pH 7.8, incubation with DPP IV, read-out: % Intact peptide remaining after time (hours)
T1 construct: purchased Sigma (Poole, Dorset, UK)
T1 sequence (P22411 whole entry): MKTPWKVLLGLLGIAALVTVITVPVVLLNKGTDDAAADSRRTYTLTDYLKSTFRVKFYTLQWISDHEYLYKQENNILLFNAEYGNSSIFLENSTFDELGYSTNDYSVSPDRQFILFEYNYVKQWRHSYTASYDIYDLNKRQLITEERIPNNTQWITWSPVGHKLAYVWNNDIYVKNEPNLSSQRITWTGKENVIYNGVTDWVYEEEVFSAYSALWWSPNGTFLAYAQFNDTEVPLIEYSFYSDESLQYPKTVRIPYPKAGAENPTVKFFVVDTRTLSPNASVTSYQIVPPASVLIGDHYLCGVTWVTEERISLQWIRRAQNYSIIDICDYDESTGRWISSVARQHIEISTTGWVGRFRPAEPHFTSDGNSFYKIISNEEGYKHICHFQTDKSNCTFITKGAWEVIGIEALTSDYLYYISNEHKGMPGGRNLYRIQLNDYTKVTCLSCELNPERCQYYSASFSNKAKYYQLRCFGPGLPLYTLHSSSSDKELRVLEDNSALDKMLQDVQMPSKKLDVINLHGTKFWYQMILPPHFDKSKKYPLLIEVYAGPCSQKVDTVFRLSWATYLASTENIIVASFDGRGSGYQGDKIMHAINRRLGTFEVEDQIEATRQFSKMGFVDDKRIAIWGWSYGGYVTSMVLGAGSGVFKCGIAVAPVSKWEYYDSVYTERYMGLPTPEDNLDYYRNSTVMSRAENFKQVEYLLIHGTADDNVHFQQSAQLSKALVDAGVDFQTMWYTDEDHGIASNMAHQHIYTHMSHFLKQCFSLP
Description: (§1) DPP IV degradation studies. GIP and fatty acid derivatised GIP analogues were incubated at 37° C. with purified porcine dipeptidylpeptidase IV (5 mU in 50 mmol/l triethanolamine-HCl; pH 7.8) for 0, 2, 4, 8 and 24 hours (final peptide concentration 2 mmol/l). The reactions were subsequently terminated by addition of 10% (v/v) TFA/water and the reaction products separated using HPLC. […] HPLC peak area data were used to calculate % intact peptide remaining throughout the incubation.

[1] = molecular target: T2, purified porcine dipeptidylpeptidase IV (Sus scrofa, UniProt P22411); test: as above; assay type: in vitro ADME; conditions: incubation with DPP IV
T2 construct: purchased Sigma (Poole, Dorset, UK)
T2 sequence (P22411 whole entry): as above
Description: as §1

human GIP receptor = molecular target: T3, human GIP receptor (Homo sapiens, UniProt P48546); test: Intracellular cyclic AMP production in GIP-receptor transfected CHL fibroblasts; assay type: cell-based
T3 construct: expressed in transfected cells; host or cells: Chinese hamster lung (CHL) fibroblasts, stably transfected
T3 sequence (P48546 22-466): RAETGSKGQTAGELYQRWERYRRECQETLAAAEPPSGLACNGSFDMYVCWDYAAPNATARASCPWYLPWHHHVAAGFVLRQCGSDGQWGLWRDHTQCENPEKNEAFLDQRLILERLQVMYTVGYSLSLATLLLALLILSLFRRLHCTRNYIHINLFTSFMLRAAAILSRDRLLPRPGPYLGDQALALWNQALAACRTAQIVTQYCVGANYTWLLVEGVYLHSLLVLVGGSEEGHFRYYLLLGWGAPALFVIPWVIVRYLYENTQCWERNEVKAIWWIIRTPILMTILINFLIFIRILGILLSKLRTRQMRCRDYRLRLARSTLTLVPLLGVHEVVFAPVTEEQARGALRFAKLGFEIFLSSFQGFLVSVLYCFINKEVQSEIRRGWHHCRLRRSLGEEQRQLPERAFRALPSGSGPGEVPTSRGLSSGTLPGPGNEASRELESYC
Description: In vitro biological activity. […] In brief, CHL cells were seeded into 12-well plates (Nünc, Roskilde, Denmark) at a density of 10^5 cells per well and allowed to grow for 48 hours before being loaded with tritiated adenine (2 μCi; TRK311; Amersham, Buckinghamshire, UK). The cells were then incubated at 37° C. for 6 hours in 1 ml DMEM supplemented with 0.5% (w/v) BSA and subsequently washed twice with HBS buffer (pH 7.4). […] The medium was subsequently removed and the cells lysed with 1 ml of 5% TCA containing 0.1 mmol/l unlabelled cyclic AMP and 0.1 mmol/l unlabelled ATP.

BRIN-BD11 cells = test: Insulin release from clonal pancreatic BRIN-BD11 cells (Example 6); assay type: cell-based; conditions: 5.6 mmol/l glucose, 20 minutes incubation
Description: Cells and cell culture. Chinese hamster lung (CHL) fibroblasts stably transfected with the human GIP receptor (Gremlich, S. et al., 1995, Diabetes 44: 1202-1208) were cultured in DMEM tissue culture medium containing 10% (v/v) FBS, 1% (v/v) antibiotics (100 U/ml penicillin, 0.1 mg/ml streptomycin). Clonal pancreatic BRIN-BD11 cells (McClenaghan, N. H. et al., 1996, Diabetes 45: 1132-1140) were cultured using RPMI-1640 culture medium containing 10% (v/v) FBS, 1% (v/v) antibiotics (100 U/ml penicillin, 0.1 mg/ml streptomycin) and 11.1 mmol/l glucose. Cells were maintained at 37° C. in an atmosphere of 5% CO2 and 95% air using an LEEC incubator (Laboratory Technical Engineering, Nottingham, UK).
Insulin-release studies were carried out using clonal pancreatic BRIN-BD11 cells as described previously (O'Harte, F. P. M. et al., 2002, Diabetologia 45: 1281-1291). Briefly, BRIN-BD11 cells were seeded into 24-well plates at a density of 10^5 cells per well, and allowed to attach overnight at 37° C. Acute tests for insulin release were preceded by 40 minutes pre-incubation at 37° C. in 1.0 ml Krebs Ringer bicarbonate buffer supplemented with 1.1 mmol/l glucose. Test incubations were performed in the presence of 5.6 mmol/l glucose with a range of concentrations (10^−13 to 10^−6 mol/l) of GIP and GIP analogues. After 20 minutes incubation, the buffer was removed from each well and aliquots (200 μl) used for measurement of insulin.

ob/ob mice = test: Acute metabolic and dose-response effects with glucose in 18 h fasted ob/ob mice; assay type: in vivo, mouse
Description: Animals. Obese diabetic (ob/ob) mice derived from the colony maintained at Aston University, UK were used at 12-17 weeks of age. The genetic background and characteristics of the colony used have been outlined in detail elsewhere (Bailey, C. J. et al., 1982, Int. J. Obesity 6:11-21; Gault, V. A. et al., 2003, J. Endocrinol. 176: 133-141). Animals were housed in an air-conditioned room at 22±2° C. with a 12 hours light: 12 hours dark cycle. Drinking water and standard rodent maintenance diet (Trouw Nutrition, Cheshire, UK) were freely available. All test solutions were administered by i.p. injection in a final volume of 5 ml/kg bw. Blood was collected from the cut tip of the tail vein of conscious mice into chilled fluoride/heparin microcentrifuge tubes immediately prior to injection and at the times indicated in the Figures. Plasma was separated using a Beckman microcentrifuge (Beckman Instruments, UK) at 13,000 g for 30 second and stored at −20° C. prior to glucose and insulin determinations. All animal experiments were carried out in accordance with the UK Animals (Scientific Procedures) Act 1986.
Metabolic and dose-response effects of GIP and N-AcGIP(LysPAL) analogues (at 6.25-25 nmoles/kg bw) following glucose administration (18 mmoles/kg bw) were examined in mice fasted for 18 hours. […] Food intake and body weight were recorded daily. Plasma glucose and insulin concentrations were monitored at 2-6 day intervals. At 14 days, groups of animals were used to evaluate intraperitoneal glucose tolerance (18 mmoles/kg) and insulin sensitivity (50 U/kg). In a separate series, two experimental protocols were employed to examine the possibility of GIP receptor desensitization after 14 days treatment. […] At the end of the 14-day treatment period, pancreatic tissues were excised for measurement of insulin following extraction with 5 ml/g ice-cold acid ethanol (75% ethanol, […], 1.5% HCl). Whole blood was taken for determination of glycated hemoglobin.
Biochemical analyses. Plasma glucose was assayed by an automated glucose oxidase procedure (Stevens, J. F., 1971, Clin. Chem. Acta 32:199-201) using a Beckman Glucose Analyser II (Beckman, Galway, Ireland). Plasma insulin was determined by dextran-charcoal RIA as described previously (Flatt, P. R. et al., 1981, Diabetologia 20: 573-577). Glycated hemoglobin was determined using cation-exchange columns (Sigma, Poole, Dorset, UK) with measurement of absorbance (415 nm) in wash and eluting buffers using a VersaMax microplate spectrophotometer (Molecular Devices, Wokingham, Berkshire, UK).
Statistics. Results are expressed as mean±SEM. Data were compared using the unpaired Student's t-test. Where appropriate, data were compared using repeated measures ANOVA or one-way ANOVA, followed by the Student-Newman-Keuls post hoc test. Incremental areas under plasma glucose and insulin curves (AUC) were calculated using a computer-generated program employing the trapezoidal rule (Burington, R. S., 1973, Handbook of Mathematical Tables and Formulae, McGraw-Hill, New York) with baseline subtraction.

CCCCCCCCCCCCCCCC(=O)NCCCC[C@H](NC(=O)[C@H](CC(=O)O)NC(=O)[C@H](CCSC)NC(=O)[C@H](C)NC(=O)[C@@H](NC(=O)[C@H](CO)NC(=O)[C@H](Cc1ccc(O)cc1)NC(=O)[C@H](CC(=O)O)NC(=O)[C@H](CO)NC(=O)[C@@H](NC(=O)[C@H](Cc1ccccc1)NC(=O)[C@@H](NC(=O)CNC(=O)[C@H](CCC(=O)O)NC(=O)[C@H](C)NC(=O)[C@H](Cc1ccc(O)cc1)NC(C)=O)[C@@H](C)O)[C@@H](C)CC)[C@@H](C)CC)C(=O)N[C@H](C(=O)N[C@@H](Cc1c[nH]cn1)C(=O)N[C@@H](CCC(N)=O)C(=O)N[C@@H](CCC(N)=O)C(=O)N[C@@H](CC(=O)O)C(=O)N[C@@H](Cc1ccccc1)C(=O)N[C@H](C(=O)N[C@@H](CC(N)=O)C(=O)N[C@@H](Cc1c[nH]c2ccccc12)C(=O)N[C@@H](CC(C)C)C(=O)N[C@@H](CC(C)C)C(=O)N[C@@H](C)C(=O)N[C@@H](CCC(N)=O)C(=O)N[C@@H](CCCCN)C(=O)NCC(=O)N[C@@H](CCCCN)C(=O)N[C@@H](CCCCN)C(=O)N[C@@H](CC(N)=O)C(=O)N[C@@H](CC(=O)O)C(=O)N[C@@H](Cc1c[nH]c2ccccc12)C(=O)N[C@@H](CCCCN)C(=O)N[C@@H](Cc1c[nH]cn1)C(=O)N[C@@H](CC(N)=O)C(=O)N[C@H](C(=O)N[C@H](C(=O)N[C@@H](CCC(N)=O)C(=O)O)[C@@H](C)O)[C@@H](C)CC)C(C)C)[C@@H](C)CC [N-AcGIP(LysPAL^16)]
remaining at 2 h, 2 mmol/l (DPP IV; 2 h): 100%
remaining at 8 h, 2 mmol/l (DPP IV; 8 h): 100%
remaining at 24 h, 2 mmol/l (DPP IV; 24 h): 100%
% Intact peptide remaining after time (hours) ([1]; 0 h): 100%
% Intact peptide remaining after time (hours) ([1]; 24 h): remained completely intact
EC50 (human GIP receptor): 12.1 nM
insulin secretion compared to control (BRIN-BD11 cells): significantly stimulated glucose-induced insulin secretion
enhancement of overall glucose-mediated insulin release (AUC) compared to native GIP (ob/ob mice; 25 nmoles/kg i.p. with glucose): 1.5 fold
overall glucose excursion compared to native GIP (ob/ob mice; 25 nmoles/kg i.p. with glucose): decreased the overall glucose excursion
overall glucose excursion (glucose AUC) compared to glucose alone (ob/ob mice; 25 nmoles/kg i.p. with glucose 18 mmoles/kg, 0-60 min): significantly lowered glucose AUC
